# Assay results from US20200163984A1, “USE OF ISOVALERYL SPIRAMYCIN I, II AND/OR III IN MANUFACTURING MEDICAMENT FOR TREATING AND/OR PREVENTING TUMOR, AND MEDICAMENT” (SHENYANG FUYANG PHARMACEUTICAL TECHNOLOGY CO., LTD., priority 2017, published 2020).
# Tests used:
# [1] = test system: spleen lymphocytes (ConA, LPS stimulation); assay: Spleen lymphocyte proliferation activity of Lewis lung cancer tumor-bearing mice; format: in vivo, C57BL/6 mouse; conditions: for B Lymphocyte Proliferation Activity (%) / T Lymphocyte Proliferation Activity (%): n = 6
# Description: (§1) In the Lewis lung cancer model, the mice inoculated with the tumor were randomly divided into groups with 10 mice in each group the next day of inoculation. The groups included: a model control group, a positive drug cyclophosphamide control group (CTX, 30 mg/kg), isovaleryl spiramycin I groups with doses of 13, 26 and 52 mg/kg; isovaleryl spiramycin II groups with doses of 13, 26 and 52 mg/kg; isovaleryl spiramycin III groups with doses of 13, 26 and 52 mg/kg. Each group was continuously administered intragastrically for 15 days with a dose of 20 ml/kg.
# (§2) The serum-free RPMI 1640 medium was placed in a dish, and then the dish was placed on ice. The spleen was aseptically taken and gently ground with a sterile glass slide to prepare a single cell suspension. The single cell suspension was filtered with a double-layer sterile gauze, washed twice with serum-free RPMI1640 medium, and centrifuged at 1,500 rpm for 5 min to remove the obtained supernatant. 2 mL of red blood cell lysate was added to the treated suspension, the mixture was allowed to stand for 2 min, and then 8 mL of RPMI 1640 medium was added, centrifuging was performed at 1,500 rpm for 5 min to remove the obtained supernatant, and then washing was performed twice with the RPMI 1640 medium. […] A single cell suspension was prepared by using a RPMI 1640 medium containing 10% fetal bovine serum.
# The spleen cell suspension was taken, and the cell density was adjusted to 1×10^7/mL. Each mouse was set with: A. a control well: 100 μL of RPMI 1640 medium was added; B. a concanavalin A (ConA) stimulation well: 100 μL (10 mg/L) of concanavalin A (ConA) solution was added; and C. a bacterial endotoxin (LPS) stimulating well: 100 μL (20 mg/L) of bacterial endotoxin (LPS) solution was added. The above cells were added to a 96-well plate, and then 100 μL of spleen cell suspension was added to each of the above wells. After the culture plate was transferred to a saturated humidity condition with a volume fraction of 5% CO2 at 37° C. for incubation for 72 h, 10 μL of MTT solution (5 g/L) was added to each well, and incubation was continued to be performed for 4 hours under the same conditions, then the culture was terminated. 100 μl of a triple solution (SDS 10 g, 10M HCl 0.1 mL, […] 5 mL, diluted with distilled water to 100 mL) was added, and the plate was shaken for 10 min to fully dissolve the crystals. The Optical Density (OD) of each well was measured at 570 nm, and the lymphocyte proliferation rate was calculated. Lymphocyte proliferation rate (%)=[(T-C)/C]×100%, wherein T was the Optical Density of the stimulation well, and C is the Optical Density of the control well.
# [2] = test system: transplanted tumor of human esophageal cancer cell TE-1; assay: TE-1 transplanted tumor in nude mice
# Description: Then cell concentration was adjusted to 1×10^7/ml with matrigel, then each nude mouse was inoculated subcutaneously with 0.2 ml of cells at its right armpit and recorded as the first day of inoculation. When the tumor grows to be greater than or equal to 100 mm^3, the mice were randomly divided into 11 groups with 6 mice in each group: a model group, a cyclophosphamide group, isovaleryl spiramycin I groups with doses of 25, 50 and 100 mg/kg, isovaleryl spiramycin II groups with doses of 25, 50 and 100 mg/kg, and isovaleryl spiramycin III groups with doses of 25, 50 and 100 mg/kg. Each group was continuously administered intragastrically for 30 days with a dose of 20 ml/kg. The mice were sacrificed the next day after drug withdrawal and the indicators were tested. The long diameter and short diameter of the tumor, and the body weight of each mouse were recorded every 3 days from drug administration to nude mouse sacrifice.
# The body weight of the nude mice and the long diameter (a) and short diameter (b) of the transplanted tumor were measured every 3 days, and the tumor volume (v), relative tumor volume (RTV) and relative tumor proliferation rate (T/C) are calculated respectively according to the following formulas, wherein V=a×b^2/2; RTV=V/V0 (V0 is the tumor volume before administration, V is the tumor volume before sacrifice), and T/C (%)=treatment group RTV/model control group RTV×100%.
# Each mouse was weighed and sacrificed. After the tumor was completely stripped off from the body of the mouse, the non-tumor tissues such as blood stains and fat were removed to weigh the tumor and calculate the tumor growth inhibition rate. The average tumor weight of each group of mice is used as an indicator of efficacy. Tumor growth inhibition rate (%)=(1−the average tumor weight of the treatment group/the average tumor weight of the model group)×100%.
# [3] = test system: NK cell activity of spleen cells against K562 cells; assay: Natural killer (NK) cell activity of Lewis lung cancer tumor-bearing mice; format: in vivo, C57BL/6 mouse
# Description: as §1, §2
# The spleen cell suspension was taken, and the cell density was adjusted to 1×10^7/mL (effector cells). A suspension of K562 cells was prepared with a cell density of 1×10^5/mL (target cells). Each mouse was set with: A. effector cells:target cell well (quantity ratio 20:1) to which […] of spleen cell suspension and 100 μL of K562 cell suspension were added; B. an effector cell control well to which 100 μL of spleen cell suspension and 100 μL of RPMI 1640 medium were added; and C. a target cell control well to which 100 μL of K562 cell suspension and 100 μL of RPMI 1640 medium were added. The above cells were added to a 96-well plate. After the 96-well plate was transferred to a saturated humidity condition with a volume fraction of 5% CO2 at 37° C. for incubation for 22 h, 10 μL of MTT solution (5 g/L) was added to each well, and incubation was continued to be performed for 4 hours under the same conditions, then the culture was terminated. 100 μl of a triple solution (SDS 10 g, 10M HCl 0.1 mL, isobutanol 5 mL, diluted with distilled water to 100 mL) was added, and the plate was shaken for 10 min to fully dissolve the crystals, and the Optical Density (OD) of each well at 490 nm was measured, and the NK cell activity was calculated. NK cell activity (%)=[TO−(S−E)]/TO×100%, wherein TO is the Optical Density of the target cell control well, S is the Optical Density of the effector cell control well, and E is the Optical Density of the effector cell.
# [4] = TE-1, 12.5 mg/kg (low dose) i.g. 30 days
# [5] = TE-1, 25 mg/kg (medium dose) i.g. 30 days
# [6] = TE-1, 50 mg/kg (high dose) i.g. 30 days
compound,measurement,setting,value
"CCC(=O)O[C@@H]1CC(=O)O[C@H](C)C/C=C/C=C/[C@H](O[C@H]2CC[C@H](N(C)C)[C@@H](C)O2)[C@H](C)C[C@H](CC=O)[C@H](O[C@@H]2O[C@H](C)[C@@H](O[C@H]3C[C@@](C)(O)[C@@H](OC(=O)CC(C)C)[C@H](C)O3)[C@H](N(C)C)[C@H]2O)[C@H]1OC [Isovaleryl spiramycin III, isovaleryl spiramycin III]",lymphocyte activity compared with the control group,"[1]; Lewis tumor-bearing mice, 13, 26 and 52 mg/kg, P<0.05, P<0.01",significantly increase
same,B Lymphocyte Proliferation Activity (%),[1]; dose 13 mg/kg,33.91 ± 2.65%
same,T Lymphocyte Proliferation Activity (%),[1]; dose 13 mg/kg,20.17 ± 5.18%
same,B Lymphocyte Proliferation Activity (%),[1]; dose 26 mg/kg,34.69 ± 0.34%
same,T Lymphocyte Proliferation Activity (%),[1]; dose 26 mg/kg,18.51 ± 2.60%
same,B Lymphocyte Proliferation Activity (%),[1]; dose 52 mg/kg,32.28 ± 1.27%
same,T Lymphocyte Proliferation Activity (%),[1]; dose 52 mg/kg,18.25 ± 1.89%
same,Inhibition Rate (tumor growth inhibition rate),[2]; [4],22.64%
same,Relative Tumor Proliferation Rate (T/C),[2]; [4],66.52%
same,Relative Tumor Volume (RTV),[2]; [4],6.03 ± 5.27
same,Tumor Volume (d 1),[2]; [4],173.45 ± 63.55 mm3
same,Tumor Volume (d 30),[2]; [4],1254.78 ± 637.73 mm3
same,Tumor Weight,[2]; [4],1.21 ± 0.53 g
same,Inhibition Rate (tumor growth inhibition rate),[2]; [5],40.17%
same,Relative Tumor Proliferation Rate (T/C),[2]; [5],50.71%
same,Relative Tumor Volume (RTV),[2]; [5],5.02 ± 6.81
same,Tumor Volume (d 1),[2]; [5],206.72 ± 79.72 mm3
same,Tumor Volume (d 30),[2]; [5],1140.10 ± 819.08 mm3
same,Tumor Weight,[2]; [5],0.94 ± 0.39 g
same,Inhibition Rate (tumor growth inhibition rate),[2]; [6],65.46%
same,Relative Tumor Proliferation Rate (T/C),[2]; [6],30.72%
same,Relative Tumor Volume (RTV),[2]; [6],3.60 ± 1.29
same,Tumor Volume (d 1),[2]; [6],331.09 ± 208.02 mm3
same,Tumor Volume (d 30),[2]; [6],1106.23 ± 865.11 mm3
same,Tumor Weight,[2]; [6],0.54 ± 0.22 g
same,tumor volume and relative tumor volume compared with the model group,"[2]; TE-1, low, medium and high doses, P<0.05",significantly lower
same,mouse weight compared with the model group,"[2]; mouse, in vivo",no significant changes
same,NK Cell Activity,[3]; 13 mg/kg,48.9 ± 6.6%
same,NK Cell Activity,[3]; 26 mg/kg,46.0 ± 11.8%
same,NK Cell Activity,[3]; 52 mg/kg,49.8 ± 6.2%
same,NK cell activity compared with the control group,"[3]; 13, 26 and 52 mg/kg, P<0.01",significantly increase
